Results from patent publication EP0133795B1 (THE McLEAN HOSPITAL CORPORATION, priority 1983, dated 1985).
Values joined by “and” are separate entries in the source; they are usually repeats but may differ in a detail not shown here. Equal entries are not always repeated. “Also recorded” adds a separate entry of the source.

Key:
[1] = tested on: general motor activity of mice; assay: General locomotor activity of mice (Stoelting electronic activity monitor); format: in vivo, Balb/c mice; conditions: for activity in the general motor activity test (in words): mice
Protocol: The effect of intraperitoneal (i.p.) injections of test compounds on the general motor activity of mice during a 60-min period was determined in a Stoelting electronic activity monitor. Dose-response curves were obtained from which the half-maximally effective values were calculated and the results are shown in Table V.
The compounds were dissolved in 25% (vols.) propylene glycol in water and injected i.p. into Balb/c mice (18-24 g). Dose-response measurements were obtained for 6 animals per dose or time point. Activity was monitored for 60 min using a Stoelting Electronic Activity Monitor (EAM) apparatus to assess the general motor activity of the animals.
The general locomotor activity of mice was measured in the Stolting activity monitor apparatus during 60 min after an intraperitoneal (i.p.) injection of a test compound.

[2] = target: GABA "receptors"; assay: Inhibition of [3H]GABA binding to synaptic membranes from rat cerebellum; conditions: [3H]GABA (15 nM); synaptic membrane preparations from rat cerebellum
Protocol: IC50 values were determined by fitting data to linearized transformations, based on including at least two concentrations of antagonists above and below the IC50, with at least triplicate replication per concentration.

[3] = tested on: bicuculline-induced epileptic seizures; assay: Delay of onset of bicuculline-induced seizures (anticonvulsant activity); format: in vivo, mouse; conditions: for Onset of seizures: % Saline Control / Survival Time: % Saline Control: 24 hr pretreatment, bicuculline 0.3 mg/kg; for In Vivo Delay of Time of Onset of Bicuculline-induced seizures: graded 0-5
Protocol: In a second behavioral test, the ability of a substance to prevent or delay the onset of biculline-induced epileptic seizures was measured. […] At 24 hr after i.p. injection of the cholesteryl derivative at a dose of 30 mg/kg (64 pmol/kg), the onset of seizures was delayed by 30% after an acute i.p. injection of bicuculline at 0.3 mg/kg. […] The dexamethasone and butyl esters had no effect.
The compounds were also injected i.p. at 1, 6 and 24 hr before the administration of bicuculline (0.3 mg/kg) s.c. The latency to the onset of generalized tonic-clonic epileptic seizures and the protection against the lethality of bicuculline were measured and evaluated as a percent of the data for vehicle-injected controls. No significant changes were obtained at the 1 hr and 6 hr time points. At the 24 hr time, however, some compounds delayed while others accelerated the onset of seizures.
The effect of the compound to delay the onset of a bicuculline-induced seizures was evaluated.
The ability of a substance to delay the onset of bicuculline-induced epileptic seizures in the mouse was measured (Table X). […] At 24 hr after i.p. injection of the cholesteryl derivative (6) at a dose of 30 mg/kg (64 pmol/kg), the onset of seizures was delayed by 30% (as compared to saline controls) after an acute i.p. injection of bicuculline at 0.3 mg/kg. […] The dexamethasone and butyl esters had no effect on seizures in mice.

[4] = Comparative brain/liver uptake of 14C-labeled compounds (Brain Penetration Index)
Protocol: The criterion used herein for measuring the extent to which a compound, from which the radical A is derived, crosses the blood-brain barrier is based on the uptake of this compound by the brain relative to its uptake by the liver. […] Measurements of the quantity of a compound present in brain and liver at 5 minutes after a subcutaneous (s.c.) injection were used to calculate a Brain Penetration Index (BPI), with the equation: [formula]
This is the amount of the compound present per gram of brain tissue as a percent of the amount per gram of liver tissue.
This procedure has the advantage that even for a sparingly soluble lipid ester, which tends to remain largely at the site of the injection and slowly diffuse into the circulation, its level in the liver will reflect the amount available rather than the initial dose injected.
The uptake of a ^14C-labeled compound into brain was compared with the uptake into liver of the same animal.
All determinations were carried out at 5 min after injection. The volumes of the injected doses into mice (body weight, 18-24 g) for the i.v., i.p., and s.c. doses were 0.15, 0.3 and 0.5 ml, respectively. […] Each tissue was homogenized in 8 ml of pyridine in a glass homogenizer.
Each labeled test compound was injected as a solution in 0.5 ml of saline (Compound 7) or in 25% propylene glycol in water (Compounds 1, 5, 6) subcutaneously (s.c.) into young adult Balb/c mice (18-24 g body weight). After 5 min (or longer) animals were sacrificed and the brain and liver removed, weighed and homogenized respectively in 8 ml and 10 ml of brain protein solvent (1 % (w/v) sodium dodecyl sulfate in 6 M urea and 19 mM EDTA, pH 7.4, 0.03 M phosphate). Aliquots (0.5 ml) of the homogenates were mixed with 10 ml of Aquasol 2 (New England Nuclear) and counted in a Beckman liquid scintillation counter. The total uptake of each compound per g brain and liver tissue was calculated. The proportion of uptake into brain as compared to liver (100%) of the same animal was designated as the Brain Penetration Index (BPI), expressed as a percentage typically at 5 min after injection.
Each of the ^14C-labeled Compounds 26, 28 and 30 were in 125 µl of the propylene glycol diluted with water up to 0.5 ml, and then injected subcutaneously into test Balb/c mice (20 ± 2 g weight). After 5 min the animals were sacrificed and the brain and liver were removed, weighed and homogenized in 8 ml and 10 ml of brain protein solvent, respectively. Next 0.5 ml aliquots were mixed with 10 ml of Aquasol 2 (New England Nuclear Corp., Boston, MA) and counted in a Beckman liquid scintillation counter. The data for the label in each tissue were used to calculate the total quantity of the compound present in brain and liver per gram of tissue. The ratio of the amount in brain as a percent of that present in liver at 5 min was taken as the Brain Penetration Index (BPI). Measurements at longer uptake times were also obtained to evaluate the accumulation of the compounds in the brain.

[5] = tested on: general motor activity of mice; assay: General locomotor activity of mice (Stoelting electronic activity monitor); format: in vivo, Balb/c mice; conditions: 500 µg administered intracisternally directly into the cerebrospinal fluid
[6] = tested on: CAI pyramidal cells; format: cell-based, Sprague-Dawley rats
Protocol: Transverse slices of hippocampus (350-375 µm thick) were prepared from Sprague-Dawley rats (200-300 g) and transferred onto a nylon net fixed over a 1.5 ml superfusion chamber. The slices were maintained at 32-33°C in a humidified atmosphere of 95%/5% 02/C02. The standard medium consisted of (in mM): NaCl, 125; KCI, 3.5; CaC12,2; MgS04, 1.5; NaH2PO4, 1; NaHC03, 24; and glucose, 10. Low chloride medium was prepared by substituting sodium isethionate for sodium chloride.
Extracellular potentials were recorded with NaCI-fitted micropipettes, and stimulus pulses were applied through bipolar platinum wire electrodes. The various drugs were dissolved in fresh medium (without glucose and phosphate) and applied to the surface of the tissue by pressure ejection from a micropipette, Sakai, Swartz and Woody, (1979).
The inhibitory effectiveness of various compounds was investigated by measuring their ability to suppress the extracellular population spike recorded from the hippocampal CAI pyramidal layer and elicited by stimulation of stratum radiatum axons. The amplitude of this monosynaptic population spike is essentially proportional to the number of pyramidal cells discharging in response to a stimulus volley, Andersen, Bliss and Skrede, (1971).
The various compounds were applied as droplets to the pyramidal layer approximately 75 µm from the recording electrode. The volume of a single drug application was about 300 picoliters. […] The volume ejected from each pipette was calibrated prior to use by measuring the diameter of the ejected droplet and adjusting the duration of the pressure pulse (usually 100-500 msec) until a standard diameter was reached. A constant droplet volume was used throughout the experiments. Where dose-response information was required, several pipettes with different drug concentrations were used.

[7] = tested on: general motor activity; conditions: systemically injected doses of up to 1 g/kg (9.7 mmol/kg); previous experiments; cited from earlier work
[8] = 260 μmol/kg s.c., 5 min, mice, mean ± S.E.M. (n = 3)
[9] = Table IX summary, 5-min Brain Penetration Index
[10] = Table VI, 270 μmol/kg s.c., 5 min, Balb/c mice

CC/C=C\C/C=C\C/C=C\CCCCCCCCOC(=O)CCCN [Compound 5, Linolenoyl Ester of y-aminobutyric Acid]
activity in the general motor activity test (in words) ([1]; i.p., listed as linolenyl ester): not active | activity in the general motor activity test (in words) ([1]; i.p., listed as linolenyl ester of GABA): insignificant effect; also recorded: no significant effect | IC50 [2]: 40 µM | Onset of seizures: % Saline Control ([3]; 12 mg/kg): 102 ± 4 % Saline Control | Survival Time: % Saline Control ([3]; 12 mg/kg): 118 ± 10 % Saline Control | Onset of seizures: % Saline Control ([3]; 17 mg/kg): 73 ± 15 % Saline Control | Survival Time: % Saline Control ([3]; 17 mg/kg): 111 ± 14 % Saline Control | Onset of seizures: % Saline Control ([3]; 25 mg/kg): 78 ± 9 % Saline Control | Survival Time: % Saline Control ([3]; 25 mg/kg): 68 ± 9 % Saline Control | Onset of seizures: % Saline Control ([3]; 36 mg/kg): 50 ± 5 % Saline Control | Survival Time: % Saline Control ([3]; 36 mg/kg): 62 ± 6 % Saline Control | Onset of seizures: % Saline Control ([3]; 50 mg/kg): 40 ± 11 % Saline Control | Survival Time: % Saline Control ([3]; 50 mg/kg): 63 ± 8 % Saline Control | acceleration of seizure onset time ([3]; 50 mg/kg, 24 hr, listed as linolenyl ester of GABA): 70% and 60% | In Vivo Delay of Time of Onset of Bicuculline-induced seizures [3]: 0 | (BRAIN) [4, 8]: 3.5 ± 0.4 nmol/g | (LIVER) [4, 8]: 141.7 ± 8 nmol/g | BPI [4, 8]: 2 ± 0.6% | (BRAIN) ([4]; 260 μmol/kg s.c., 15 min, mice): 11.0 nmol/g | (LIVER) ([4]; 260 μmol/kg s.c., 15 min, mice): 220.8 nmol/g | BPI ([4]; 260 μmol/kg s.c., 15 min, mice): 5% | (BRAIN) ([4]; 260 μmol/kg s.c., 45 min, mice): 24.9 nmol/g | (LIVER) ([4]; 260 μmol/kg s.c., 45 min, mice): 33.3 nmol/g | BPI ([4]; 260 μmol/kg s.c., 45 min, mice): 75% | increase of 5-min BPI over GABA ([4]; 5 min after s.c. injection, relative to GABA): 2 fold | BPI [4, 9]: 2 | accumulation of radioactivity in brain persisted post-injection ([4]; s.c., mice): 45 to 60 min

NCCCC(=O)O [GABA, gamma-aminobutyric acid, reference compound]
effect on general motor activity [5]: no significant effect | effect on general motor activity ([1]; 1.94 mmol/kg, i.p.): no significant effect | effect on general locomotor activity ([1]; dose of 9.7 mmol/kg (1 g/kg)): no significant effect | effect after incubation of slices in PMSF (0.5 mM) for about 45 min [6]: no change | effect with picrotoxin (10 µM) in the medium or low chloride medium [6]: little effect | recovery of the population spike amplitude to 90% of the pre-droplet control value ([6]; after an approximately half-maximal dose): 1 to 2 min | time until recovery was usually complete ([6]; after droplet application): 2 to 3 min | In Vivo Delay of Time of Onset of Bicuculline-induced seizures [3]: 0 | effect on motor activity in rats [7]: little effect | (BRAIN) ([4]; 30 μmol/kg i.v., 5 min, mouse): 0.04 nmol/g | (LIVER) ([4]; 30 μmol/kg i.v., 5 min, mouse): 4.2 nmol/g | BPI (5 min) ([4]; 30 μmol/kg i.v., 5 min, mouse): 0.95% | (BRAIN) ([4]; 60 μmol/kg i.p., 5 min, mouse): 0.23 nmol/g | (LIVER) ([4]; 60 μmol/kg i.p., 5 min, mouse): 29 nmol/g | BPI (5 min) ([4]; 60 μmol/kg i.p., 5 min, mouse): 0.80% | (BRAIN) ([4]; 120 μmol/kg i.p., 5 min, mouse): 0.45 nmol/g | (LIVER) ([4]; 120 μmol/kg i.p., 5 min, mouse): 46 nmol/g | BPI (5 min) ([4]; 120 μmol/kg i.p., 5 min, mouse): 1.00% | (BRAIN) ([4]; 160 μmol/kg i.p., 5 min, mouse): 0.66 nmol/g | (LIVER) ([4]; 160 μmol/kg i.p., 5 min, mouse): 71 nmol/g | BPI (5 min) ([4]; 160 μmol/kg i.p., 5 min, mouse): 0.93% | (BRAIN) ([4]; 210 μmol/kg i.p., 5 min, mouse): 0.83 nmol/g | (LIVER) ([4]; 210 μmol/kg i.p., 5 min, mouse): 83 nmol/g | BPI (5 min) ([4]; 210 μmol/kg i.p., 5 min, mouse): 1.00% | (BRAIN) ([4]; 270 μmol/kg s.c., 5 min, mouse): 1.03 nmol/g | (LIVER) ([4]; 270 μmol/kg s.c., 5 min, mouse): 104 nmol/g | BPI (5 min) ([4]; 270 μmol/kg s.c., 5 min, mouse): 1.00% | (BRAIN) ([4]; 380 μmol/kg s.c., 5 min, mouse): 1.81 nmol/g | (LIVER) ([4]; 380 μmol/kg s.c., 5 min, mouse): 165 nmol/g | BPI (5 min) ([4]; 380 μmol/kg s.c., 5 min, mouse): 1.10% | BPI [4, 9]: 1 | (BRAIN) [4, 10]: 1.03 nmol/g | (LIVER) [4, 10]: 104 nmol/g | BPI ([4]; Table VI, 270 μmol/kg s.c., 5 min, Balb/c mice, mean ± S.E.M.): 1±.09%
